From patent US9187497B2, “Substituted pyrido[3,2-e]pyrrolo[1,2-a]pyrazines as inhibitors of poly(ADP-ribose)polymerase (PARP)” (Takeda Phamaceutical Company Limited, priority 2009, dated 2015)

How the values were obtained:
[1] = target: T1, catalytic domain of Human PARP (Homo sapiens, UniProt P09874); test: Biacore surface plasmon resonance affinity assay (dissociation constant KD); format: binding; details: pKD=-log(KD), KD in molar concentration; Biacore T100, 25° C.
T1 construct: The catalytic domain of Human PARP was cloned and prepared; made in house
T1 sequence (P09874 788-1014 limits assumed): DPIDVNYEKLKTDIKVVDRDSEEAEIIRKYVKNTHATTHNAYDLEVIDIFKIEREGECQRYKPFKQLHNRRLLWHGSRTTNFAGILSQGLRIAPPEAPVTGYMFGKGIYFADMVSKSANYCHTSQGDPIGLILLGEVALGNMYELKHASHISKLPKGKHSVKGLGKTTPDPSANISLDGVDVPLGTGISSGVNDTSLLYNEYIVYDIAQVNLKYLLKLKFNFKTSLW
Method: Dissociation Constant (KD) from Surface Plasmon Resonance
The catalytic domain of Human PARP was cloned and prepared as described in Kinoshita, T.; Nakanishi, I.; Warizaya, M.; Iwashita, A.; Kido, Y.; Hattori, K. and Fujii, T. 2006 FEBS Letters 556, 43-46. Purified enzyme was stored at −80° C. in 25 mM Tris(hydroxymethyl)aminomethane (Tris) pH 7.4, 150 mM NaCl, 2 mM dithiothreitol (DTT) at a concentration of 6 mg/ml.
Biacore affinity assays for test compounds were conducted on a Biacore T100 (GE Healthcare) as follows. A Series S Sensor Chip CM5 (part number BR-1006-68, GE Healthcare) was activated for amide coupling with an Amine Coupling Kit (part number BR-1000-50, GE Healthcare) as described by the manufacturer. The mobile phase buffer consisted of Biacore buffer HBS-P (part number BR-1003-68, GE Healthcare) supplemented with 1% v/v dimethylsulfoxide (DMSO), 0.5 mM Tris(2-carboxyethyl)phosphine hydrochloride (TCEP), and 5 mM MgCl2. Enzyme samples (2 μl/6 mg/ml) stored at −80° C. were diluted to 0.080 mg/ml with 10 mM 4-morpholineethanesulfonic acid (MES) pH 6.5 and then mounted on the activated Biacore CM5 chip at a flow rate of 10 μl/min for 240 seconds. When successfully mounted, a signal of approximately 8,000 reflective units was observed. Test compounds were diluted 9 times 2-fold serially in mobile phase buffer (listed above) at 1% v/v DMSO final to generate a concentration gradient bracketing their anticipated KDs. Biacore mounted PARP was given a 1 minute exposure (association phase) to various concentrations of test compounds to observe a steady state equilibrium or an on rate. The exposure was followed with a dissociation phase of 5 minutes. The association and dissociation phases were at a flow rate of 50 μl/min and a temperature of 25° C.
Parameters Rmax (response at saturation) and KD (binding constant) were calculated through a nonlinear least squares fitting of the equation to the data by use of the Biacore T100 analysis software.
Parameter optimization was through a nonlinear least squares analysis of the association phase Response=Rmax*(1−exp(−(kon[cmpd]+koff)*t)) and dissociation phase Response=[…] by use of the Biacore T100 analysis software. The binding constant KD was calculated from the definition KD=koff/kon

Jurkat cell line = test: PARP cellular chemopotentiation assay (MTS cell viability with and without TMZ); format: cell-based; details: ratio of EC50 for inhibition of cell viability without and with 100 μM TMZ; Jurkat cells, 96 hours of treatment
Summary of the method: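 Jurkat cells, 10,000/well, pre-cultured 24 h, then treated 96 h with serial compound dilutions (0.5% DMSO) with or without 100 μM TMZ. Viability by MTS conversion (OD490), normalized to DMSO controls; EC50 from curve fits, PF50 = EC50 without TMZ / EC50 with TMZ.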

PARP = target: T2, PARP (Homo sapiens, UniProt P09874); test: PARP ELISA colorimetric assay of inhibition of PARP catalytic activity (IC50); format: biochemical; details: pIC50=-log(IC50), IC50 in molar concentration; ELISA-based PARP kit, 10 minutes of catalysis
T2 construct: purchased Trevigen 4684-096-01 (enzyme); kit 4684-096-K HT
T2 sequence (P09874 whole entry): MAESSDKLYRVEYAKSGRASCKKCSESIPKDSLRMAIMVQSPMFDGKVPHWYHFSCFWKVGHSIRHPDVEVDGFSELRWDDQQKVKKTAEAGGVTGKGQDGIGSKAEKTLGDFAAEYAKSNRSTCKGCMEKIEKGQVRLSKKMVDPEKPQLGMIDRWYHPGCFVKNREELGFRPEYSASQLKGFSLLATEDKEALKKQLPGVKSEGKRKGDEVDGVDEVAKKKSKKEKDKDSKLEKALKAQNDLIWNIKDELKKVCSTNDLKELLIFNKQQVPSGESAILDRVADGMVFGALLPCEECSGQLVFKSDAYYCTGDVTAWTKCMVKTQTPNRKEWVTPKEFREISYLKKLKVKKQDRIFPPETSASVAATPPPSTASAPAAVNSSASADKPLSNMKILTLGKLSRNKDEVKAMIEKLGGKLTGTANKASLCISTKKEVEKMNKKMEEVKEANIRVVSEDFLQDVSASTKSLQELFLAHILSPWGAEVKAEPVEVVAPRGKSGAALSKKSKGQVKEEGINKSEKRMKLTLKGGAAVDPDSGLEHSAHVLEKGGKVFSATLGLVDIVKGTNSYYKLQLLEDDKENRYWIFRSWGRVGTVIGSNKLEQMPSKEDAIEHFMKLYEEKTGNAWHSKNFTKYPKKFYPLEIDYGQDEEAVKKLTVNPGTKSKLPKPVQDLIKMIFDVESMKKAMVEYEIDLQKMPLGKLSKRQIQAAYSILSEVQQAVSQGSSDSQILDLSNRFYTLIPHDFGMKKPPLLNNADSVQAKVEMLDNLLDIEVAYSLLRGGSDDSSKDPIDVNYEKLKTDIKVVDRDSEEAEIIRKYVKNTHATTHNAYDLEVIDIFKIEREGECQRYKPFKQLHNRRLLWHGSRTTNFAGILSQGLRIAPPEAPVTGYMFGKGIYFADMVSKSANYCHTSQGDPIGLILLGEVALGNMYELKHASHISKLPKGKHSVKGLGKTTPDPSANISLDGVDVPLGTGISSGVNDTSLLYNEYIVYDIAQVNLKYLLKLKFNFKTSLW
Summary of the method: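 Human PARP was added as a 0.1 nM solution to histone-coated wells with compound for a 10-min ambient preincubation. The reaction was started with 100 μM NAD+ solution plus activated DNA and run 10 min. PAR formation was detected by anti-PAR ELISA, colorimetric. IC50 came from a 12-point, 3-fold gradient fitted by nonlinear least squares to a Hill equation.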

Row | SMILES | Kd [1] [nM] | PF50 (Jurkat cell line) | IC50 (PARP) [nM]
1 | O=C1Nc2cc(CN3CCC(c4ccc(Cl)cc4)CC3)cnc2N2CCC[C@@H]12 [Compound 3, (S)-3-((4-(4-chlorophenyl)piperidin-1-yl)methyl)-6a,7,8,9-tetrahydropyrido[3,2-e]pyrrolo[1,2-a]pyrazin-6(5H)-one] | 31.6 to 794 | >10 | –
2 | C[C@H]1C(=O)Nc2cc(CN3CC=C(c4ccc(Cl)cc4)CC3)cnc2N1C [Compound 52, (S)-7-((4-(4-chlorophenyl)-5,6-dihydropyridin-1(2H)-yl)methyl)-3,4-dimethyl-3,4-dihydropyrido[3,2-b]pyrazin-2(1H)-one] | < 31.6 | ≧0 | –
3 | C[C@H]1C(=O)Nc2cc(CN3CCC(c4ccccc4)CC3)cnc2N1C [Compound 54, (S)-3,4-dimethyl-7-((4-phenylpiperidin-1-yl)methyl)-3,4-dihydropyrido[3,2-b]pyrazin-2(1H)-one] | ≥ 1000 | – | –
4 | C[C@H]1C(=O)Nc2cc(CN3CC=C(c4ccc(F)cc4)CC3)cnc2N1C [Compound 56, (S)-7-((4-(4-fluorophenyl)-5,6-dihydropyridin-1(2H)-yl)methyl)-3,4-dimethyl-3,4-dihydropyrido[3,2-b]pyrazin-2(1H)-one] | < 31.6 | ≧0 | –
5 | C[C@H]1C(=O)Nc2cc(CN3CCN(c4cccc(Cl)c4)CC3)cnc2N1C [Compound 58, (S)-7-((4-(3-chlorophenyl)piperazin-1-yl)methyl)-3,4-dimethyl-3,4-dihydropyrido[3,2-b]pyrazin-2(1H)-one] | ≥ 1000 | – | –
6 | CC(C)N1c2ncc(CN3CC=C(c4ccc(Cl)cc4)CC3)cc2NC(=O)[C@@H]1C [Compound 60, (S)-7-((4-(4-chlorophenyl)-5,6-dihydropyridin-1(2H)-yl)methyl)-4-isopropyl-3-methyl-3,4-dihydropyrido[3,2-b]pyrazin-2(1H)-one] | ≥ 1000 | – | –
7 | CC(C)N1c2ncc(CN3CCN(c4ccc(Cl)cc4)CC3)cc2NC(=O)[C@@H]1C [Compound 61, (S)-7-((4-(4-chlorophenyl)piperazin-1-yl)methyl)-4-isopropyl-3-methyl-3,4-dihydropyrido[3,2-b]pyrazin-2(1H)-one] | ≥ 1000 | – | –
8 | CCNC(=O)c1cc(F)c(N2CCN(Cc3cnc4c(c3)NC(=O)[C@@H]3CCCN43)CC2)cc1F [Compound 124, (S)—N-ethyl-2,5-difluoro-4-(4-((6-oxo-5,6,6a,7,8,9-hexahydropyrido[3,2-e]pyrrolo[1,2-a]pyrazin-3-yl)methyl)piperazin-1-yl)benzamide] | – | ≧0 | ≥ 50.1
9 | CCNC(=O)c1ccc(N2CCN(Cc3cnc4c(c3)NC(=O)[C@@H]3CCCN43)CC2)cc1F [Compound 125, (S)—N-ethyl-2-fluoro-4-(4-((6-oxo-5,6,6a,7,8,9-hexahydropyrido[3,2-e]pyrrolo[1,2-a]pyrazin-3-yl)methyl)piperazin-1-yl)benzamide] | – | ≧0 | ≥ 50.1
10 | CCNC(=O)c1ccc(N2CCN(Cc3cnc4c(c3)NC(=O)[C@@H]3CCCN43)CC2)c(F)c1 [Compound 126, (S)—N-ethyl-3-fluoro-4-(4-((6-oxo-5,6,6a,7,8,9-hexahydropyrido[3,2-e]pyrrolo[1,2-a]pyrazin-3-yl)methyl)piperazin-1-yl)benzamide] | – | >5000 | 15.8 to 39.8
11 | CCNC(=O)c1ccc(N2CCN(Cc3cnc4c(c3)NC(=O)[C@@H]3CCCN43)CC2)c(Cl)c1 [Compound 127, (S)-3-chloro-N-ethyl-4-(4-((6-oxo-5,6,6a,7,8,9-hexahydropyrido[3,2-e]pyrrolo[1,2-a]pyrazin-3-yl)methyl)piperazin-1-yl)benzamide] | – | >500 | 15.8 to 39.8
12 | CNS(=O)(=O)c1ccc(N2CCN(Cc3cnc4c(c3)NC(=O)[C@@H]3CCCN43)CC2)cc1 [Compound 128, (S)—N-methyl-4-(4-((6-oxo-5,6,6a,7,8,9-hexahydropyrido[3,2-e]pyrrolo[1,2-a]pyrazin-3-yl)methyl)piperazin-1-yl)benzenesulfonamide] | – | ≧0 | ≥ 50.1
13 | Cc1cc(C#N)ccc1N1CCN(Cc2cnc3c(c2)NC(=O)[C@@H]2CCCN32)CC1 [Compound 129, (S)-3-methyl-4-(4-((6-oxo-5,6,6a,7,8,9-hexahydropyrido[3,2-e]pyrrolo[1,2-a]pyrazin-3-yl)methyl)piperazin-1-yl)benzonitrile] | – | >500 | 15.8 to 39.8
14 | Cc1cc(F)ccc1N1CCN(Cc2cnc3c(c2)NC(=O)[C@@H]2CCCN32)CC1 [Compound 130, (S)-3-((4-(4-fluoro-2-methylphenyl)piperazin-1-yl)methyl)-6a,7,8,9-tetrahydropyrido[3,2-e]pyrrolo[1,2-a]pyrazin-6(5H)-one] | – | >2000 | 15.8 to 39.8
15 | CNC(=O)c1ccc(N2CCN(Cc3cnc4c(c3)NC(=O)[C@@H]3CCCN43)CC2)c(F)c1 [Compound 131, (S)-3-fluoro-N-methyl-4-(4-((6-oxo-5,6,6a,7,8,9-hexahydropyrido[3,2-e]pyrrolo[1,2-a]pyrazin-3-yl)methyl)piperazin-1-yl)benzamide] | – | >500 | ≤ 12.6
16 | O=C(NC1CC1)c1ccc(N2CCN(Cc3cnc4c(c3)NC(=O)[C@@H]3CCCN43)CC2)c(F)c1 [Compound 132, (S)—N-cyclopropyl-3-fluoro-4-(4-((6-oxo-5,6,6a,7,8,9-hexahydropyrido[3,2-e]pyrrolo[1,2-a]pyrazin-3-yl)methyl)piperazin-1-yl)benzamide] | – | >2000 | ≤ 12.6
17 | CC(C)NC(=O)c1ccc(N2CCN(Cc3cnc4c(c3)NC(=O)[C@@H]3CCCN43)CC2)c(F)c1 [Compound 133, (S)-3-fluoro-N-isopropyl-4-(4-((6-oxo-5,6,6a,7,8,9-hexahydropyrido[3,2-e]pyrrolo[1,2-a]pyrazin-3-yl)methyl)piperazin-1-yl)benzamide] | – | >2000 | 15.8 to 39.8
18 | O=C(NC1CC1)c1ccc(N2CCN(Cc3cnc4c(c3)NC(=O)[C@@H]3CCCN43)CC2)c(Cl)c1 [Compound 134, (S)-3-chloro-N-cyclopropyl-4-(4-((6-oxo-5,6,6a,7,8,9-hexahydropyrido[3,2-e]pyrrolo[1,2-a]pyrazin-3-yl)methyl)piperazin-1-yl)benzamide] | – | >5000 | 15.8 to 39.8
19 | CC(C)NC(=O)c1ccc(N2CCN(Cc3cnc4c(c3)NC(=O)[C@@H]3CCCN43)CC2)c(Cl)c1 [Compound 135, (S)-3-chloro-N-isopropyl-4-(4-((6-oxo-5,6,6a,7,8,9-hexahydropyrido[3,2-e]pyrrolo[1,2-a]pyrazin-3-yl)methyl)piperazin-1-yl)benzamide] | – | >5000 | 15.8 to 39.8
20 | CNC(=O)c1ccc(N2CCN(Cc3cnc4c(c3)NC(=O)[C@@H]3CCCN43)CC2)c(Cl)c1 [Compound 136, (S)-3-chloro-N-methyl-4-(4-((6-oxo-5,6,6a,7,8,9-hexahydropyrido[3,2-e]pyrrolo[1,2-a]pyrazin-3-yl)methyl)piperazin-1-yl)benzamide] | – | >5000 | ≤ 12.6
21 | CCNC(=O)c1ccc(N2CCN(Cc3cnc4c(c3)NC(=O)[C@@H]3CCCN43)CC2)c(C)c1 [Compound 137, (S)—N-ethyl-3-methyl-4-(4-((6-oxo-5,6,6a,7,8,9-hexahydropyrido[3,2-e]pyrrolo[1,2-a]pyrazin-3-yl)methyl)piperazin-1-yl)benzamide] | – | >5000 | ≤ 12.6
22 | CNC(=O)c1ccc(N2CCN(Cc3cnc4c(c3)NC(=O)[C@@H]3CCCN43)CC2)c(C)c1 [Compound 141, (S)—N,3-dimethyl-4-(4-((6-oxo-5,6,6a,7,8,9-hexahydropyrido[3,2-e]pyrrolo[1,2-a]pyrazin-3-yl)methyl)piperazin-1-yl)benzamide] | – | >500 | ≤ 12.6
